Our source for the melting point, inhibition and IC50 values is patent publication US20010044445A1, “AZOLE INHIBITORS OF CYTOKINE PRODUCTION” (priority 1999, published 2001).

The test system of data set [1] is Human peripheral blood mononuclear cells. Briefly: Human Concanavalin-A Proliferation Assay (Con HU Assay). Type of data set: cell-based. The settings on record: Homo sapiens, PBMC, concanavalin-A stimulated human PBMC; for inhibition at 10 µM: concentration 10 μm (in parentheses in the cell); for IC50: tritiated thymidine; for inhibition at 1 µM: concentration 1 μm (in parentheses in the cell). In outline: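 Histopaque-isolated human PBMC (50,000/well) were pre-incubated 15 min with compounds, then stimulated with concanavalin-A at 2.5 μg/ml final for 3 days at 37 °C, 5% CO2. Proliferation measured by 6 h pulse with 0.5 μCi/well [3H]thymidine and beta counting.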

The mark [2] stands for this setting: 72 h, 3 days, read-out: % Inhibition of proliferation (at concentrations of 1,10, or 100 μm).

As usually defined, the melting point is the temperature, or range, at which the solid turns liquid. As usually defined, the IC50 is the concentration that inhibits the measured activity by half.

For `Cc1ccc(NC(=O)Nc2ccc(-n3nc(C(F)(F)F)cc3C(F)(F)F)cc2)c([N+](=O)[O-])c1` [Example 43, N-[4-[3,5-bis(trifluoromethyl)-1H-pyrazol-1-yl]phenyl]-N′-(4-methyl-2-nitrophenyl)urea], the melting point lay in the range of 213 to 214 °C. Also, the inhibition at 10 µM in data set [1] (setting [2]) stood at 98%. In data set [1], inhibition was half-maximal at 354 nM (IC50).

Compound `CCCCCCC(=O)Nc1ccc(-n2nc(C(F)(F)F)cc2C(F)(F)F)cc1` [Example 56, N-[4-[3,5-bis(trifluoromethyl)-1H-pyrazol-1-yl]phenyl]heptanamide] yielded a melting point of 88 to 90 °C. Also, the inhibition at 1 µM in data set [1] (setting [2]) was 32%.

Take `COc1ccc(C(=O)Nc2ccc(-n3nc(C(F)(F)F)cc3C(F)(F)F)cc2)cc1` [Example 71, N-[4-[3,5-bis(trifluoromethyl)-1H-pyrazol-1-yl]phenyl]-4-methoxybenzamide]: the melting point fell in the range of 205 to 207 °C. The inhibition at 10 µM in data set [1] (setting [2]) was 87%. For the same compound, the IC50 in data set [1] stood at 544 nM.

In the case of `N#Cc1cc(C(F)(F)F)nn1-c1ccc(NC(=O)c2ccncc2F)cc1` [Example 304, N-(4-(5-cyano-3-(trifluoromethyl)-1H-pyrazol-1-yl)phenyl)-3-fluoroisonicotinamide], the melting point lay in the range of 161 to 162 °C. In data set [1], this compound registered an IC50 of 266 nM.

The compound `O=C(Nc1ccccc1[N+](=O)[O-])c1ccc(-n2nc(C(F)(F)F)cc2C(F)(F)F)cc1` [Example 190, 4-[3,5-Bis(trifluoromethyl)-1H-pyrazol-1-yl]-N-(2-nitrophenyl)benzamide] yielded a melting point of 173 to 175 °C. In addition, in data set [1] (setting [2]), the inhibition at 1 µM was determined as 3%.

In the case of `O=C(Nc1ccc(-n2nc(C(F)(F)F)cc2C(F)(F)F)cc1)c1ccc(Cl)cc1[N+](=O)[O-]` [Example 117, N-[4-[3,5-bis(trifluoromethyl)-1H-pyrazol-1-yl]phenyl]-4-chloro-2-nitrobenzamide], the melting point was 163 to 166 °C. Besides, the inhibition at 100 µM in data set [1] (72 h, concentration 100 μm (in parentheses in the cell), 3 days, read-out: % Inhibition of proliferation (at concentrations of 1,10, or 100 μm)) is 100%. Further, the IC50 in data set [1] turned out to be 158 nM.

On to `O=C(/C=C/c1ccccc1Cl)Nc1ccc(-n2nc(C(F)(F)F)cc2C(F)(F)F)cc1` [Example 21, (E)-N-[4-[3,5-bis(trifluoromethyl)-1H-pyrazol-1-yl]phenyl]-3-(2-chlorophenyl)-2-propenamide], for which the melting point is 173 to 175 °C. The inhibition at 1 µM in data set [1] (setting [2]) is 2%.

For the compound `O=C(Nc1ccc(-n2nc(C(F)(F)F)cc2C(F)(F)F)cc1)c1cc(F)c(F)c(F)c1` [Example 227, N-[4-[3,5-bis(trifluoromethyl)-1H-pyrazol-1-yl]phenyl]-3,4,5-trifluorobenzamide], the melting point was in the range of 158 to 159 °C. Further, the inhibition at 10 µM in data set [1] (setting [2]) worked out at 100%. For the same compound, the IC50 in data set [1] turned out to be 257 nM.

Turning to `CCC(NC(=O)OCc1ccccc1)C(=O)Nc1ccc(-n2nc(C(F)(F)F)cc2C(F)(F)F)cc1` (stereo not drawn) [Example 28, phenylmethyl [1-[[[4-[3,5-bis(trifluoromethyl)-1H-pyrazol-1-yl]phenyl]amino]carbonyl]propyl]carbamate], the melting point lay within 158 to 160 °C. Also, in data set [1] (setting [2]), the inhibition at 1 µM was 12%.

As to `CC#CC(=O)Nc1ccc(-n2nc(C(F)(F)F)cc2C(F)(F)F)cc1` [Example 12, N-[4-[3,5-bis(trifluoromethyl)-1H-pyrazol-1-yl]phenyl]-2-butynamide], the melting point fell in the range of 220 to 221 °C. Besides, the inhibition at 10 µM in data set [1] (setting [2]) amounted to 98%. For the same compound, the midpoint of inhibition in data set [1], the IC50, lay at 427 nM.

As to `O=C(Nc1ccc(-n2nc(C(F)(F)F)cc2C(F)(F)F)cc1)c1ccc(F)c(Cl)c1` [Example 210, N-[4-[3,5-bis(trifluoromethyl)-1H-pyrazol-1-yl]phenyl]-3-chloro-4-fluorobenzamide], the melting point was 138 to 139 °C. For the same compound, the inhibition at 10 µM in data set [1] (setting [2]) is 100%. In data set [1], it took 239 nM to reach half-maximal inhibition (IC50).

Regarding `CC1CC1C(=O)Nc1ccc(-n2nc(C(F)(F)F)cc2C(F)(F)F)cc1` (stereo not drawn) [Example 7, N-[4-[3,5-bis(trifluoromethyl)-1H-pyrazol-1-yl]phenyl]-2-methylcyclopropanecarboxamide], the melting point lay in the range of 172 to 173 °C. Also, the inhibition at 10 µM in data set [1] (setting [2]) was found to be 97%. Besides, in data set [1], the IC50 was found to be 403 nM.

`O=C(Nc1ccc(-n2nc(C(F)(F)F)cc2C(F)(F)F)cc1)c1ccc(-n2cccc2)cc1` [Example 46, N-[4-[3,5-bis(trifluoromethyl)-1H-pyrazol-1-yl]phenyl]-4-(1H-pyrrol-1-yl)benzamide]: the melting point is 249 to 252 °C. In data set [1] (setting [2]), the inhibition at 1 µM came out at 10%.

Turning to `O=C(Nc1ccc(-n2nc(C(F)(F)F)cc2C(F)(F)F)cc1F)c1ccc(F)cc1F` [Example 272, N-[4-[3,5-bis(trifluoromethyl)-1H-pyrazol-1-yl]-2-fluorophenyl]-2,4-difluorobenzamide], the melting point was in the range of 66 to 67 °C. Also, in data set [1] (setting [2]), the inhibition at 1 µM was determined as 10%.

The compound `CC1(C(=O)Nc2ccc(-n3nc(C(F)(F)F)cc3C(F)(F)F)cc2)CC1(Cl)Cl` (stereo not drawn) [Example 3, N-[4-[3,5-bis(trifluoromethyl)-1H-pyrazol-1-yl]phenyl]-2,2-dichloro-1-methylcyclopropanecarboxamide] had a melting point of 143 to 145 °C. Moreover, the inhibition at 10 µM in data set [1] (setting [2]) was 100%. Also, half-maximal inhibition in data set [1] (IC50) required 328 nM.

Compound `N#Cc1cc(C(F)(F)F)nn1-c1ccc(NC(=O)c2ccncc2)cc1` [Example 303, N-(4-(5-cyano-3-(trifluoromethyl)-1H-pyrazol-1-yl)phenyl)isonicotinamide] showed a melting point of 145 to 146 °C. This compound also returned an IC50 in data set [1] of 487 nM.

On to `O=C(Nc1ccc(-n2nc(C(F)(F)F)cc2C(F)(F)F)cc1)c1c(F)cc(Cl)cc1Cl` [Example 232, N-[4-[3,5-bis(trifluoromethyl)-1H-pyrazol-1-yl]phenyl]-2,4-dichloro-6-fluorobenzamide], for which the melting point is 185 to 188 °C. Moreover, in data set [1] (setting [2]), the inhibition at 10 µM worked out at 99%. In data set [1], this compound had a 50% inhibitory concentration (IC50) of 172 nM.

Consider `O=C(Nc1ccc(-n2nc(C(F)(F)F)cc2C(F)(F)F)cc1)C1CCCN1` (stereo not drawn) [Example 242, N-[4-[3,5-bis(trifluoromethyl)-1H-pyrazol-1-yl]phenyl]-2-pyrrolidinecarboxamide], for which the melting point lay within 82 to 84 °C. The inhibition at 1 µM in data set [1] (setting [2]) was 3%.

Take `O=C(Nc1ccc(-n2nc(C(F)(F)F)cc2C(F)(F)F)cc1)c1cc(F)c(F)c(F)c1F` [Example 235, N-[4-[3,5-bis(trifluoromethyl)-1H-pyrazol-1-yl]phenyl]-2,3,4,5-tetrafluorobenzamide]: the melting point fell in the range of 138 to 140 °C. For the same compound, in data set [1] (setting [2]), the inhibition at 10 µM came to 100%. 107 nM corresponded to half-maximal inhibition in data set [1] (IC50).

The compound `O=C(Nc1ccc(-n2nc(C(F)(F)F)cc2C(F)(F)F)cc1)C1CCCO1` (stereo not drawn) [Example 241, N-[4-[3,5-bis(trifluoromethyl)-1H-pyrazol-1-yl]phenyl]tetrahydro-2-furancarboxamide] gave a melting point of 113 to 116 °C. In addition, in data set [1] (setting [2]), the inhibition at 1 µM is 10%.

Compound `O=C(Nc1ccc(-n2nc(C(F)(F)F)cc2C(F)(F)F)cc1)c1ccc(Cl)s1` [Example 253, N-[4-[3,5-bis(trifluoromethyl)-1H-pyrazol-1-yl]phenyl]-5-chloro-2-thiophenecarboxamide] gave a melting point of 182 to 184 °C. Besides, in data set [1] (setting [2]), the inhibition at 10 µM came out at 94%. Moreover, the IC50 in data set [1] stood at 447 nM.

Consider `O=C(Nc1ccc(-n2nc(C(F)(F)F)cc2C(F)(F)F)cc1)c1ccc[nH]1` [Example 166, N-[4-[3,5-bis(trifluoromethyl)-1H-pyrazol-1-yl]phenyl]-1H-pyrrole-2-carboxamide], for which the melting point is greater than 240 °C. Also, in data set [1] (setting [2]), the inhibition at 1 µM is 11%.

`O=C(Cc1cc2ccccc2[nH]1)Nc1ccc(-n2nc(C(F)(F)F)cc2C(F)(F)F)cc1` [Example 170, N-[4-[3,5-bis(trifluoromethyl)-1H-pyrazol-1-yl]phenyl]-1H-indole-2-acetamide] came in with a melting point of 176 to 178 °C. Moreover, the inhibition at 1 µM in data set [1] (setting [2]) was 25%.

Consider `O=C(COc1ccccc1[N+](=O)[O-])Nc1ccc(-n2nc(C(F)(F)F)cc2C(F)(F)F)cc1` [Example 168, N-[4-[3,5-bis(trifluoromethyl)-1H-pyrazol-1-yl]phenyl]-2-(2-nitrophenoxy)acetamide], for which the melting point fell in the range of 170 to 173 °C. Moreover, in data set [1] (setting [2]), the inhibition at 1 µM is 20%.

For `O=C(Nc1ccc(-n2nc(C(F)(F)F)cc2C(F)(F)F)cc1)c1c(F)cccc1F` [Example 160, N-[4-[3,5-bis(trifluoromethyl)-1H-pyrazol-1-yl]phenyl]-2,6-difluorobenzamide], the melting point was in the range of 127 to 128 °C. Besides, the inhibition at 1 µM in data set [1] (setting [2]) came to 1%.

For `CS(=O)(=O)c1ccc(C(=O)Nc2ccc(-n3nc(C(F)(F)F)cc3C(F)(F)F)cc2)c(Cl)c1` [Example 207, N-[4-[3,5-bis(trifluoromethyl)-1H-pyrazol-1-yl]phenyl]-2-chloro-4-(methylsulfonyl)benzamide], the melting point lay within 219 to 220 °C. Moreover, the inhibition at 10 µM in data set [1] (setting [2]) was determined as 100%. For the same compound, 372 nM corresponded to half-maximal inhibition in data set [1] (IC50).

`NS(=O)(=O)c1cccc(C(=O)Nc2ccc(-n3nc(C(F)(F)F)cc3C(F)(F)F)cc2)c1` [Example 141, 3-(aminosulfonyl)-N-[4-[3,5-bis(trifluoromethyl)-1H-pyrazol-1-yl]phenyl]benzamide]: the melting point lay within 177 to 178 °C. Besides, the inhibition at 1 µM in data set [1] (setting [2]) amounted to 4%.
